This passage reports IC50 results from patent US9725449B2, “Tricyclic compounds as anticancer agents” (BRISTOL-MYERS SQUIBB COMPANY, priority 2015, dated 2017).

Like-named read-outs stand apart in the source and are kept apart here. Where only a bound is given, the exact number is not on record here.

The target of this experiment is BRD4 (Homo sapiens, UniProt O60885). Put plainly: Time resolved fluorescence resonance energy transfer (TR-FRET) binding assay, bromodomain BRD4. Particulars: one of the FRET assays described.

For `COc1ncc(Cl)c2c1c1ncc(-c3c(C)nnn3C)cc1n2[C@H](c1ccccc1)C1CCOCC1` [Example 39, 10-Chloro-5-(dimethyl-1H-1,2,3-triazol-5-yl)-13-methoxy-8-[(S)-oxan-4-yl(phenyl)methyl]-3,8,11-triazatricyclo[7.4.0.0^2,^7]trideca-1(13),2(7),3,5,9,11-hexaene], the IC50 (read-out: FRET BRD4 IC50) was under 10 nM.
In the case of `CCS(=O)(=O)Nc1ncc(S(C)(=O)=O)c2c1c1ncc(-c3c(C)noc3C)cc1n2[C@H](c1ccccc1)C1CCOCC1` [Example 99, N-[5-(Dimethyl-1,2-oxazol-4-yl)-10-methanesulfonyl-8-[(S)-oxan-4-yl(phenyl)methyl]-3,8,12-triazatricyclo[7.4.0.0^2,^7]trideca-1(13),2(7),3,5,9,11-hexaen-13-yl]ethane-1-sulfonamide], the IC50 (read-out: FRET BRD4 IC50) was under 1 nM.
With `[2H]C([2H])([2H])c1nnn(C)c1-c1cnc2c3c(NCC(F)(F)F)ncc(S(C)(=O)=O)c3n([C@H](c3ncccc3F)C3CCOCC3)c2c1` [Example 341, 8-[(S)-(3-Fluoropyridin-2-yl)(oxan-4-yl)methyl]-10-methanesulfonyl-5-[4-(^2H3)methyl-1-methyl-1H-1,2,3-triazol-5-yl]-N-(2,2,2-trifluoroethyl)-3,8,12-triazatricyclo[7.4.0.0^2,^7]trideca-1(13),2(7),3,5,9,11-hexaen-13-amine], the IC50 (read-out: FRET BRD4 IC50) was under 1 nM.
With `[2H]C([2H])([2H])c1nnn(C)c1-c1cnc2c3ccc(N4CCN(CC(F)(F)F)CC4)nc3n([C@H](c3ccccc3)C3CCOCC3)c2c1` [Example 154, 5-[4-(^2H3)Methyl-1-methyl-1H-1,2,3-triazol-5-yl]-8-[(S)-oxan-4-yl(phenyl)methyl]-11-[4-(2,2,2-trifluoroethyl)piperazin-1-yl]-3,8,10-triazatricyclo[7.4.0.0^2,^7]trideca-1(9),2(7),3,5,10,12-hexaene], the IC50 (read-out: FRET BRD4 IC50) is under 10 nM.
`Cc1nnn(C)c1-c1cnc2c3c(O)nc(C(C)(C)O)cc3n([C@@H](c3ncccc3F)C3CCOCC3)c2c1` [Example 312, 8-[(R)-(3-Fluoropyridin-2-yl)(oxan-4-yl)methyl]-11-(2-hydroxypropan-2-yl)-5-[4-(^2H3)methyl-1-methyl-1H-1,2,3-triazol-5-yl]-3,8,12-triazatricyclo[7.4.0.0^2,^7]trideca-1(9),2(7),3,5,10,12-hexaen-13-ol]: under “read-out: FRET BRD4 IC50”, the IC50 is under 10 nM.
On to `[2H]C([2H])([2H])c1nnn(C)c1-c1cnc2c3c(OCC)ncc(S(C)(=O)=O)c3n([C@H](c3ccc(F)cc3)C3CCOCC3)c2c1` [Example 77, 13-Ethoxy-8-[(S)-(4-fluorophenyl)(oxan-4-yl)methyl]-10-methanesulfonyl-5-[4-(^2H3)methyl-1-methyl-1H-1,2,3-triazol-5-yl]-3,8,12-triazatricyclo[7.4.0.0^2,^7]trideca-1(13),2(7),3,5,9,11-hexaene], for which the IC50 (read-out: FRET BRD4 IC50) was under 1 nM.
Consider `[2H]C([2H])([2H])c1nnn(C)c1-c1cnc2c3c(C(C)(C)O)cncc3n([C@H](c3ccccc3)C3CCOCC3)c2c1` [Example 298, 2-{5-[4-(^2H3)Methyl-1-methyl-1H-1,2,3-triazol-5-yl]-8-[(S)-oxan-4-yl(phenyl)methyl]-3,8,11-triazatricyclo[7.4.0.0^2,^7]trideca-1(9),2(7),3,5,10,12-hexaen-13-yl}propan-2-ol], for which, under “read-out: FRET BRD4 IC50”, the IC50 was under 10 nM.
Turning to `[2H]C([2H])([2H])c1nnn(C)c1-c1cnc2c3c(NCC(F)(F)F)cncc3n([C@H](c3ccccc3)C3CCOCC3)c2c1` [Example 302, 5-[4-(^2H3)Methyl-1-methyl-1H-1,2,3-triazol-5-yl]-8-[(S)-oxan-4-yl(phenyl)methyl]-N-(2,2,2-trifluoroethyl)-3,8,11-triazatricyclo[7.4.0.0^2,^7]trideca-1(9),2(7),3,5,10,12-hexaen-13-amine], the IC50 (read-out: FRET BRD4 IC50) was under 1 nM.
Turning to `[2H]C([2H])([2H])C(C)(O)c1ccc2c3ncc(-c4c(C)nnn4C)cc3n([C@H](c3ccccc3)C3CCOCC3)c2n1` (stereo partly drawn) [Example 177, 2-[5-(Dimethyl-1H-1,2,3-triazol-5-yl)-8-[(S)-oxan-4-yl(phenyl)methyl]-3,8,10-triazatricyclo[7.4.0.0^2,^7]trideca-1(9),2(7),3,5,10,12-hexaen-11-yl](1,1,1-^2H3)propan-2-ol], the concentration for half-maximal inhibition (IC50) (read-out: FRET BRD4 IC50) is under 1 nM.
Same read-out and setting: as for `[2H]C([2H])([2H])c1nnn(C)c1-c1cnc2c3cnc(C(C)(C)O)cc3n([C@H](c3ccccc3)C3CCOCC3)c2c1` [Example 284, 2-{5-[4-(^2H3)Methyl-1-methyl-1H-1,2,3-triazol-5-yl]-8-[(S)-oxan-4-yl(phenyl)methyl]-3,8,12-triazatricyclo[7.4.0.0^2,^7]trideca-1(9),2(7),3,5,10,12-hexaen-11-yl}propan-2-ol], the figure is under 1 nM.
With `Cc1nnn(C)c1-c1cnc2c3cnc(-c4c(C)nnn4C)nc3n([C@H](c3ccccc3)C3CCOCC3)c2c1` [Example 155, 5,11-Bis(dimethyl-1H-1,2,3-triazol-5-yl)-8-[(S)-oxan-4-yl(phenyl)methyl]-3,8,10,12-tetraazatricyclo[7.4.0.0^2,^7]trideca-1(9),2(7),3,5,10,12-hexaene], the IC50 (read-out: FRET BRD4 IC50) is under 10 nM.
In the case of `[2H]C([2H])([2H])c1nnn(C)c1-c1cnc2c3c(OC)nccc3n([C@H](c3ccccc3)C3CCOCC3)c2c1` [Example 128, 13-Methoxy-5-[4-(^2H3)methyl-1-methyl-1H-1,2,3-triazol-5-yl]-8-[(S)-oxan-4-yl(phenyl)methyl]-3,8,12-triazatricyclo[7.4.0.0^2,^7]trideca-1(13),2(7),3,5,9,11-hexaene], the IC50 (read-out: FRET BRD4 IC50) was under 10 nM.
Turning to `[2H]C([2H])([2H])c1nnn(C)c1-c1cnc2c3c(OC)ncc(S(C)(=O)=O)c3n([C@H](c3ccccc3)C3CCOCC3)c2c1` [Example 47, 10-Methanesulfonyl-13-methoxy-5-[4-(^2H3)methyl-1-methyl-1H-1,2,3-triazol-5-yl]-8-[(S)-oxan-4-yl(phenyl)methyl]-3,8,12-triazatricyclo[7.4.0.0^2,^7]trideca-1(13),2(7),3,5,9,11-hexaene], the half-maximal inhibitory concentration (IC50) (read-out: FRET BRD4 IC50) was under 1 nM.
Consider `C=C(OCC)c1ccc2c3ncc(-c4c(C)nnn4C)cc3n([C@H](c3ccccc3)C3CCOCC3)c2n1` [Example 170, 5-(Dimethyl-1H-1,2,3-triazol-5-yl)-1-(1-ethoxyethenyl)-8-[(S)-oxan-4-yl(phenyl)methyl]-3,8,10-triazatricyclo[7.4.0.0^2,^7]trideca-1(9),2(7),3,5,10,12-hexaene], for which the IC50 (read-out: FRET BRD4 IC50) was under 10 nM.
`[2H]C([2H])([2H])c1nnn(C)c1-c1cnc2c3c(OC(C)C)ncc(S(C)(=O)=O)c3n(C(c3ncccc3F)C3CCOCC3)c2c1` (centres unmarked) [Example 71, 8-[(3-Fluoropyridin-2-yl)(oxan-4-yl)methyl]-10-methanesulfonyl-5-[4-(^2H3)methyl-1-methyl-1H-1,2,3-triazol-5-yl]-13-(propan-2-yloxy)-3,8,12-triazatricyclo[7.4.0.0^2,^7]trideca-1(13),2(7),3,5,9,11-hexaene]: the IC50 (read-out: FRET BRD4 IC50) was under 1500 nM.
On to `COCCNc1nccc2c3ncc(-c4c(C)nnn4C)cc3n([C@H](c3ccccc3)C3CCOCC3)c12` [Example 9, 5-(Dimethyl-1H-1,2,3-triazol-5-yl)-N-(2-methoxyethyl)-8-[(S)-oxan-4-yl(phenyl)methyl]-3,8,11-triazatricyclo[7.4.0.0^2,^7]trideca-1(13),2(7),3,5,9,11-hexaen-10-amine], for which the concentration for half-maximal inhibition (IC50) (read-out: FRET BRD4 IC50) is under 10 nM.
On to `Cc1nnn(C)c1-c1cnc2c3ccc(NCCP(=O)(O)O)nc3n([C@H](c3ccccc3)C3CCOCC3)c2c1` [Example 219, (2-{[5-(Dimethyl-1H-1,2,3-triazol-5-yl)-8-[(S)-oxan-4-yl(phenyl)methyl]-3,8,10-triazatricyclo[7.4.0.0^2,^7]trideca-1(9),2(7),3,5,10,12-hexaen-11-yl]amino}ethyl)phosphonic acid], for which, where the note is “read-out: FRET BRD4 IC50”, the IC50 was under 1 nM.
Still for that read-out and setting: in the case of `[2H]C([2H])([2H])c1nnn(C)c1-c1cnc2c3ccc(N4CCS(=O)(=O)CC4)nc3n([C@H](c3ccccc3)C3CCOCC3)c2c1` [Example 185, 4-{5-[4-(^2H3)Methyl-1-methyl-1H-1,2,3-triazol-5-yl]-8-[(S)-oxan-4-yl(phenyl)methyl]-3,8,10-triazatricyclo[7.4.0.0^2,^7]trideca-1(9),2(7),3,5,10,12-hexaen-11-yl}-1λ^6,4-thiomorpholine-1,1-dione] it was under 10 nM; in that of `[2H]C([2H])([2H])c1nnn(C)c1-c1cnc2c3ccc(-c4c(C([2H])([2H])[2H])nnn4C)nc3n(C(c3ccccc3)C3CCC(F)(F)CC3)c2c1` (centres unmarked) [Example 261, 8-[(4,4-Difluorocyclohexyl)(phenyl)methyl]-5,11-bis[4-(^2H3)methyl-1-methyl-H-1,2,3-triazol-5-yl]-3,8,10-triazatricyclo[7.4.0.0^2,^7]trideca-1(13),2(7),3,5,9,11-hexaene], under 10 nM.
Consider `Cc1noc(C)c1-c1cnc2c3cnc(C(C)(C)O)cc3n([C@H](c3ncccc3F)C3CCOCC3)c2c1` [Example 338], for which the IC50 (read-out: FRET BRD4 IC50) was under 10 nM.
On to `[2H]C([2H])([2H])c1nnn(C)c1-c1cnc2c3ccc(-c4c(C([2H])([2H])[2H])nnn4C)nc3n(C(c3ccccc3)C3CCC(F)(F)CC3)c2c1` (centres unmarked) [Example 260, 8-[(4,4-Difluorocyclohexyl)(phenyl)methyl]-5,11-bis[4-(^2H3)methyl-1-methyl-H-1,2,3-triazol-5-yl]-3,8,10-triazatricyclo[7.4.0.0^2,^7]trideca-1(13),2(7),3,5,9,11-hexaene], for which the IC50 (read-out: FRET BRD4 IC50) was under 10 nM.
As to `[2H]C([2H])([2H])c1onc(C)c1-c1cnc2c3cnc(C(C)(C)O)cc3n([C@H](c3ccc(F)cc3)C3CCOCC3)c2c1` [Example 225, 2-{8-[(S)-(4-Fluorophenyl)(oxan-4-yl)methyl]-5-[5-(^2H3)methyl-3-methyl-1,2-oxazol-4-yl]-3,8,12-triazatricyclo[7.4.0.0^2,^7]trideca-1(13),2(7),3,5,9,11-hexaen-11-yl}propan-2-ol], for the setting “read-out: FRET BRD4 IC50”, the concentration for half-maximal inhibition (IC50) was under 1 nM.
Compound `[2H]C([2H])([2H])c1nnn(C)c1-c1cnc2c3ccc(N4C5CCCC4CC5)nc3n([C@H](c3ccccc3)C3CCOCC3)c2c1` [Example 184, 11-{8-Azabicyclo[3.2.1]octan-8-yl}-5-[4-(^2H3)methyl-1-methyl-1H-1,2,3-triazol-5-yl]-8-[(S)-oxan-4-yl(phenyl)methyl]-3,8,10-triazatricyclo[7.4.0.0^2,^7]trideca-1(9),2(7),3,5,10,12-hexaene] yielded an IC50 (FRET BRD4 IC50 (nM)) of under 10 nM.

One may read the IC50 as the concentration that inhibits the measured activity by half.
